{
  "source": "patent US8680065B2",
  "about": "“Oligonucleotides of human endogenous retrovirus 9 (ERV-9) long terminal repeat (LTR) and methods of use” (The United States of America, as represented by the …, priority 2008, dated 2014)",
  "type_in_all_cases": "cell-based, human",
  "key": {"[1]": {"tested_on": "LNcaP cells", "experiment": "Cancer cell proliferation, oligonucleotide in combination with VP16, 48 hours", "conditions": "oligonucleotide 15 μg/ml with VP16 30 ng/ml and 50 ng/ml", "description": "(§1) FIG. 10 is a graph showing proliferation of LNcaP cells treated with ERV-9 U3 sense or antisense oligonucleotide (SEQ ID NOs: 1 and 2, respectively), in combination with VP16. Cells (4×10^4) were treated with oligonucleotide (15 μg/ml) alone or in combination with the concentrations of VP16 shown for 48 hours.\n(§2) To test the effect of treating cancer cells with the combination of ERV-9 U3 oligonucleotide and VP16, six different cancer cell lines were analyzed: HT1080, (FIG. 7); MDA-231 (FIG. 8); K562 (FIG. 9); LNcaP (FIG. 10); HepG2 (FIG. 11); and MCF-7 (FIG. 12). Cells (4×10^4) were treated with 15 μg/ml ERV-9 U3 sense (SEQ ID NO: 1) or antisense (SEQ ID NO: 2) oligonucleotide alone or in combination with VP16 at a concentration of 30 ng/ml or 50 ng/ml. After 48 hours, cell proliferation was assessed by direct cell counting. Cell proliferation levels were expressed relative to GFP oligonucleotide control in the absence of VP16."}, "[2]": {"tested_on": "HepG2 cells", "experiment": "Cancer cell proliferation, oligonucleotide in combination with VP16, 48 hours", "conditions": "oligonucleotide 15 μg/ml with VP16 30 ng/ml and 50 ng/ml, P<0.05", "description": "as §1, with “FIG. 11” for “FIG. 10”, “of HepG2” for “of LNcaP”\nas §2"}, "[3]": {"tested_on": "HT1080 cells", "experiment": "Cancer cell proliferation, U3 and U5 oligonucleotides, 72 hours", "conditions": "20 μg/ml", "description": "FIG. 16 is a graph showing the effect of sense and antisense ERV-9 U3 (SEQ ID NOs: 1, 2, 7, 8, 9, and 10) and U5 (SEQ ID NOs: 11 and 12) oligonucleotides on proliferation of HT1080 cells. Cells (4×10^4) were treated with oligonucleotide formulated in LIPOFECTAMINE™ at a concentration of 20 μg/ml for 72 hours. GFP sense oligonucleotide was used as a control to measure the non-specific cytotoxicity of phosphorothioate-based oligonucleotides. Antisense oligonucleotides G3139, GRN163, and MDM2 were also evaluated. Cell proliferation levels were expressed relative to cells transfected with GFP oligonucleotide. All U3 and U5 sense and antisense oligonucleotides inhibited cell proliferation to a greater extent that GFP control. In addition, with the exception of the U5 sense oligonucleotide, all U3 and U5 oligonucleotides inhibited cell proliferation better than the G3139, GRN163 and MDM2 antisense oligonucleotides.\nHT1080 or MDA-231 cells (4×10^4 cells) were treated with ERV-9 LTR (U3 or U5) sense or antisense oligonucleotides formulated in LIPOFECTAMINE™ at a concentration of 20 μg/ml for 72 hours. GFP sense oligonucleotide was used as a control to measure the non-specific cytotoxicity of phosphorothioates-based oligonucleotides. Relative cell proliferation levels were expressed as percentage of GFP oligonucleotide transfected control. The results are shown in FIG. 16 (HT1080 cells) and FIG. 17 (MDA-231 cells)."}, "[4]": {"tested_on": "MCF-7 cells", "experiment": "Cancer cell proliferation, oligonucleotide in combination with VP16, 48 hours", "conditions": "oligonucleotide 15 μg/ml with VP16 30 ng/ml and 50 ng/ml, P<0.05", "description": "as §1, with “FIG. 12” for “FIG. 10”, “of MCF-7” for “of LNcaP”\nas §2"}, "[5]": {"tested_on": "K562 cells (a myelogenous leukemia cell line)", "experiment": "Cancer cell proliferation, oligonucleotide in LIPOFECTAMINE, 48 hours, direct cell counting", "conditions": "P<0.05", "description": "(§3) FIG. 3 is a graph showing the effect of sense and antisense ERV-9 U3 oligonucleotides (SEQ ID NOs: 1 and 2, respectively) on proliferation of K562 cells (a myelogenous leukemia cell line). Cells (4×10^4) were treated with ERV-9 U3 sense or antisense oligonucleotide formulated in LIPOFECTAMINE™ at the concentrations shown for 48 hours.\n(§4) To test the effect of the sense and antisense ERV-9 U3 oligonucleotides on proliferation of cancer cells, six different cancer cell lines were selected for transfection studies: HT1080, fibrosarcoma cells (FIG. 1); MDA-231, breast cancer cells (FIG. 2); K562, myelogenous leukemia cells (FIG. 3); LNcaP, prostate cancer cells (FIG. 4); HepG2, hepatocellular carcinoma cells (FIG. 5); and MCF-7, breast cancer cells (FIG. 6). Cells (4×10^4) were treated with ERV-9 U3 sense or antisense oligonucleotide formulated in LIPOFECTAMINE™ at an oligonucleotide concentration of 10, 20 or 30 μg/ml for 48 hours. Green fluorescent protein (GFP) sense oligonucleotide ([…]; SEQ ID NO: 3) was used as a control to measure the non-specific cytotoxicity of phosphorothioate-based oligonucleotides. Antisense oligonucleotides specific for Bcl-2 (G3139; TCTCCCAGCGTGCGCCAT; SEQ ID NO: 4), telomerase (GRN163; TAGGGTTAGACAA; SEQ ID NO: 5), and MDM2 ([…]; SEQ ID NO: 6) were also evaluated. […] After 48 hours of oligonucleotide treatment, cell proliferation was assessed by direct cell counting. Cell proliferation levels were expressed relative to cells transfected with 10 μg/ml GFP control oligonucleotide."}, "[6]": {"tested_on": "K562 cells", "experiment": "Cancer cell proliferation, oligonucleotide in combination with VP16, 48 hours", "conditions": "oligonucleotide 15 μg/ml with VP16 30 ng/ml and 50 ng/ml, P<0.05", "description": "as §1, with “FIG. 9” for “FIG. 10”, “of K562” for “of LNcaP”\nas §2"}, "[7]": {"tested_on": "LNcaP cells (a prostate cancer cell line)", "experiment": "Cancer cell proliferation, oligonucleotide in LIPOFECTAMINE, 48 hours, direct cell counting", "conditions": "oligonucleotide 10, 20 or 30 μg/ml"}, "[8]": {"tested_on": "MCF-7 cells (a breast cancer cell line)", "experiment": "Cancer cell proliferation, oligonucleotide in LIPOFECTAMINE, 48 hours, direct cell counting", "conditions": "P<0.05; for cell proliferation compared with G3139, GRN163 and MDM2 antisense oligonucleotides: oligonucleotide 30 μg/ml; for cell proliferation relative to GFP oligonucleotide: oligonucleotide 10, 20 or 30 μg/ml", "description": "as §3, with “FIG. 6” for “FIG. 3”, “of MCF-7” for “of K562”, “(a breast cancer” for “(a myelogenous leukemia”\nas §4"}, "[9]": {"tested_on": "MDA-231 cells", "experiment": "Cancer cell proliferation, oligonucleotide in combination with VP16, 48 hours", "conditions": "oligonucleotide 15 μg/ml with VP16 30 ng/ml and 50 ng/ml, P<0.05"}, "[10]": {"conditions": "oligonucleotide 10 μg/ml and 20 μg/ml"}},
  "data": [
    {"substance": "U3AS: ERV-9 LTR U3 antisense oligonucleotide CTGATTGGTGTGTTTACAAACCTTGAG, phosphorothioate internucleoside linkages at each position (all phosphorothioate, sugars by position and methylation of C not given here) [Oligo U3AS]", "values": [
      {"measurement": "cell proliferation relative to GFP oligonucleotide control", "setting": "[1]", "result": "inhibited cell proliferation better than GFP oligonucleotide"},
      {"measurement": "cell proliferation relative to GFP oligonucleotide control", "setting": "[2]", "result": "inhibited cell proliferation better than GFP control and G3139, GRN163 and MDM2 antisense oligonucleotides"},
      {"measurement": "cell proliferation relative to GFP oligonucleotide transfected control", "setting": "[3]", "result": "inhibited cell proliferation better than G3139, GRN163 and MDM2 oligonucleotides"},
      {"measurement": "cell proliferation relative to GFP oligonucleotide control", "setting": "[4]", "result": "inhibited cell proliferation better than GFP control and G3139, GRN163 and MDM2 antisense oligonucleotides"},
      {"measurement": "cell proliferation relative to GFP oligonucleotide", "setting": "[5]; [10]", "result": "inhibited cell proliferation better than GFP control oligonucleotide"},
      {"measurement": "cell proliferation relative to GFP oligonucleotide", "setting": "[5]; oligonucleotide 30 μg/ml", "result": "inhibited proliferation better than GFP control and G3139, GRN163 and MDM2 antisense oligonucleotides"},
      {"measurement": "cell proliferation relative to GFP oligonucleotide control", "setting": "[6]", "result": "inhibited cell proliferation better than GFP control and G3139, GRN163 and MDM2 antisense oligonucleotides"},
      {"measurement": "cell proliferation relative to GFP oligonucleotide", "setting": "[7]", "result": "inhibited cell proliferation better than GFP control oligonucleotide at all three oligonucleotide concentrations"},
      {"measurement": "cell proliferation compared with G3139, GRN163 and MDM2 antisense oligonucleotides", "setting": "[8]", "result": "inhibited proliferation better than G3139, GRN163 and MDM2 antisense oligonucleotides"},
      {"measurement": "cell proliferation relative to GFP oligonucleotide", "setting": "[8]", "result": "inhibited cell proliferation better than GFP control oligonucleotide at all three concentrations"},
      {"measurement": "cell proliferation relative to GFP oligonucleotide control", "setting": "[9]", "result": "inhibited cell proliferation better than GFP control and G3139, GRN163 and MDM2 antisense oligonucleotides"}
    ]},
    {"substance": "U3S: ERV-9 LTR U3 sense oligonucleotide CTCAAGGTTTGTAAACACACCAATCAG, phosphorothioate internucleoside linkages at each position (all phosphorothioate, sugars by position and methylation of C not given here) [Oligo U3S]", "values": [
      {"measurement": "cell proliferation relative to GFP oligonucleotide control", "setting": "[1]", "result": "inhibited cell proliferation better than GFP oligonucleotide"},
      {"measurement": "cell proliferation relative to GFP oligonucleotide control", "setting": "[2]", "result": "inhibited cell proliferation better than GFP control and G3139, GRN163 and MDM2 antisense oligonucleotides"},
      {"measurement": "cell proliferation relative to GFP oligonucleotide transfected control", "setting": "[3]", "result": "inhibited cell proliferation better than G3139, GRN163 and MDM2 oligonucleotides"},
      {"measurement": "cell proliferation relative to GFP oligonucleotide control", "setting": "[4]", "result": "inhibited cell proliferation better than GFP control and G3139, GRN163 and MDM2 antisense oligonucleotides"},
      {"measurement": "cell proliferation relative to GFP oligonucleotide", "setting": "[5]; [10]", "result": "inhibited cell proliferation better than GFP control oligonucleotide"},
      {"measurement": "cell proliferation relative to GFP oligonucleotide", "setting": "[5]; oligonucleotide 30 μg/ml", "result": "inhibited proliferation better than GFP control and G3139, GRN163 and MDM2 antisense oligonucleotides"},
      {"measurement": "cell proliferation relative to GFP oligonucleotide control", "setting": "[6]", "result": "inhibited cell proliferation better than GFP control and G3139, GRN163 and MDM2 antisense oligonucleotides"},
      {"measurement": "cell proliferation relative to GFP oligonucleotide", "setting": "[7]", "result": "inhibited cell proliferation better than GFP control oligonucleotide at all three oligonucleotide concentrations"},
      {"measurement": "cell proliferation compared with G3139, GRN163 and MDM2 antisense oligonucleotides", "setting": "[8]", "result": "inhibited proliferation better than G3139, GRN163 and MDM2 antisense oligonucleotides"},
      {"measurement": "cell proliferation relative to GFP oligonucleotide", "setting": "[8]", "result": "inhibited cell proliferation better than GFP control oligonucleotide at all three concentrations"},
      {"measurement": "cell proliferation relative to GFP oligonucleotide control", "setting": "[9]", "result": "inhibited cell proliferation better than GFP oligonucleotide"}
    ]}
  ]
}
